{"source": "ChEMBL document CHEMBL5137031", "about": "“The structure-based design of peptidomimetic inhibitors against SARS-CoV-2 3C like protease as Potent anti-viral drug candidate” (Eur J Med Chem, 2022)", "data": [{"test_system": "SARS-CoV-2", "test": "Antiviral activity against SARS-CoV-2 WIV04 infected in African green monkey Vero cells assessed as inhibition of viral proliferation measured at 24 hrs post infection by qRT-PCR analysis", "assay_type": "functional, organism-based", "conditions": "Severe acute respiratory syndrome coronavirus 2, WIV04, Vero", "units": {"EC50": "nM"}, "values": [{"smiles": "CC(C)C[C@H](NC(=O)[C@@H](NC(=O)/C=C/c1ccccc1)C(C)C)C(=O)N[C@H](C=O)C[C@@H]1CCCNC1=O", "EC50": "> 3000"}, {"smiles": "CC(C)C[C@H](NC(=O)[C@@H](NC(=O)c1ccc[nH]1)C(C)C)C(=O)N[C@H](C=O)C[C@@H]1CCCNC1=O", "EC50": "> 3000"}, {"smiles": "O=C[C@H](C[C@@H]1CCCNC1=O)NC(=O)[C@@H](NC(=O)/C=C/c1ccccc1)c1ccccc1", "EC50": "> 3000"}, {"smiles": "CC(C)C[C@H](NC(=O)[C@@H](NC(=O)c1ccc(F)cc1)C(C)C)C(=O)N[C@H](C=O)C[C@@H]1CCCNC1=O", "EC50": "> 3000"}, {"smiles": "CC(C)C[C@H](NC(=O)[C@@H](NC(=O)/C=C/c1ccc(N(C)C)cc1)C(C)C)C(=O)N[C@H](C=O)C[C@@H]1CCCNC1=O", "EC50": "> 3000"}, {"smiles": "CC(C)C[C@H](NC(=O)[C@@H](NC(=O)/C=C/c1ccc(C(C)C)cc1)C(C)C)C(=O)N[C@H](C=O)C[C@@H]1CCCNC1=O", "EC50": "> 3000"}, {"smiles": "CC[C@H](C)[C@H](NC(=O)/C=C/c1ccccc1)C(=O)N[C@@H](CC(C)C)C(=O)N[C@H](C=O)C[C@@H]1CCCNC1=O", "EC50": "> 3000"}, {"smiles": "CC(C)C[C@H](NC(=O)[C@@H](NC(=O)c1ccccc1)C(C)C)C(=O)N[C@H](C=O)C[C@@H]1CCCNC1=O", "EC50": "> 3000"}, {"smiles": "CC(C)C[C@H](NC(=O)[C@@H](NC(=O)c1ccc(-c2ccccc2)cc1)C(C)C)C(=O)N[C@H](C=O)C[C@@H]1CCCNC1=O", "EC50": "> 3000"}, {"smiles": "CC(C)C[C@H](NC(=O)[C@@H](NC(=O)c1ccc(Cl)cc1)C(C)C)C(=O)N[C@H](C=O)C[C@@H]1CCCNC1=O", "EC50": "> 3000"}, {"smiles": "CC(C)C[C@H](NC(=O)[C@@H](NC(=O)c1ccc2cc[nH]c2c1)C(C)C)C(=O)N[C@H](C=O)C[C@@H]1CCCNC1=O", "EC50": "> 3000"}, {"smiles": "CC(C)C[C@H](NC(=O)[C@@H](NC(=O)c1ccccn1)C(C)C)C(=O)N[C@H](C=O)C[C@@H]1CCCNC1=O", "EC50": "> 3000"}, {"smiles": "CC(C)C[C@H](NC(=O)[C@@H](NC(=O)/C=C/c1ccccc1F)C(C)C)C(=O)N[C@H](C=O)C[C@@H]1CCCNC1=O", "EC50": "> 3000"}, {"smiles": "CC(C)C[C@H](NC(=O)[C@@H](NC(=O)/C=C/c1cccc(F)c1)C(C)C)C(=O)N[C@H](C=O)C[C@@H]1CCCNC1=O", "EC50": "> 3000"}, {"smiles": "CC(C)C[C@H](NC(=O)[C@@H](NC(=O)c1ccoc1)C(C)C)C(=O)N[C@H](C=O)C[C@@H]1CCCNC1=O", "EC50": "> 3000"}, {"smiles": "CC(C)C[C@H](NC(=O)[C@@H](NC(=O)/C=C/c1ccc(F)cc1)C(C)C)C(=O)N[C@H](C=O)C[C@@H]1CCCNC1=O", "EC50": "> 3000"}, {"smiles": "C[C@H](NC(=O)/C=C/c1ccccc1)C(=O)N[C@H](C=O)C[C@@H]1CCCNC1=O", "EC50": "> 3000"}, {"smiles": "CC(C)C[C@H](NC(=O)[C@@H](NC(=O)c1ccc([N+](=O)[O-])cc1)C(C)C)C(=O)N[C@H](C=O)C[C@@H]1CCCNC1=O", "EC50": "> 3000"}, {"smiles": "CC(C)C[C@H](NC(=O)[C@@H](NC(=O)c1ccncc1)C(C)C)C(=O)N[C@H](C=O)C[C@@H]1CCCNC1=O", "EC50": "> 3000"}, {"smiles": "CCCC[C@H](NC(=O)/C=C/c1ccccc1)C(=O)N[C@H](C=O)C[C@@H]1CCCNC1=O", "EC50": "> 3000"}, {"smiles": "C=CC[C@H](NC(=O)/C=C/c1ccccc1)C(=O)N[C@H](C=O)C[C@@H]1CCCNC1=O", "EC50": "> 3000"}, {"smiles": "COc1ccc(/C=C/C(=O)N[C@H](C(=O)N[C@@H](CC(C)C)C(=O)N[C@H](C=O)C[C@@H]2CCCNC2=O)C(C)C)cc1", "EC50": "> 3000"}]}, {"test_system": "A549", "test": "Cytotoxicity against human A549 cells assessed as inhibition of cell growth measured after 24 hrs by MTT assay", "assay_type": "toxicity, cell-based", "conditions": "a549, 24 h", "values": [{"smiles": "CC(C)C[C@H](NC(=O)[C@@H](NC(=O)/C=C/c1ccccc1)C(C)C)C(=O)N[C@H](C=O)C[C@@H]1CCCNC1=O", "Activity": "Non-Toxic"}, {"smiles": "CC(C)C[C@H](NC(=O)[C@@H](NC(=O)c1ccc[nH]1)C(C)C)C(=O)N[C@H](C=O)C[C@@H]1CCCNC1=O", "Activity": "Non-Toxic"}, {"smiles": "O=C[C@H](C[C@@H]1CCCNC1=O)NC(=O)[C@@H](NC(=O)/C=C/c1ccccc1)c1ccccc1", "Activity": "Non-Toxic"}, {"smiles": "CC(C)C[C@H](NC(=O)[C@@H](NC(=O)c1ccc(F)cc1)C(C)C)C(=O)N[C@H](C=O)C[C@@H]1CCCNC1=O", "Activity": "Non-Toxic"}, {"smiles": "CC(C)C[C@H](NC(=O)[C@@H](NC(=O)/C=C/c1ccc(N(C)C)cc1)C(C)C)C(=O)N[C@H](C=O)C[C@@H]1CCCNC1=O", "Activity": "Non-Toxic"}, {"smiles": "CC(C)C[C@H](NC(=O)[C@@H](NC(=O)/C=C/c1ccc(C(C)C)cc1)C(C)C)C(=O)N[C@H](C=O)C[C@@H]1CCCNC1=O", "Activity": "Non-Toxic"}, {"smiles": "CC[C@H](C)[C@H](NC(=O)/C=C/c1ccccc1)C(=O)N[C@@H](CC(C)C)C(=O)N[C@H](C=O)C[C@@H]1CCCNC1=O", "Activity": "Non-Toxic"}, {"smiles": "CC(C)C[C@H](NC(=O)[C@@H](NC(=O)c1ccccc1)C(C)C)C(=O)N[C@H](C=O)C[C@@H]1CCCNC1=O", "Activity": "Non-Toxic"}, {"smiles": "CC(C)C[C@H](NC(=O)[C@@H](NC(=O)c1ccc(-c2ccccc2)cc1)C(C)C)C(=O)N[C@H](C=O)C[C@@H]1CCCNC1=O", "Activity": "Non-Toxic"}, {"smiles": "CC(C)C[C@H](NC(=O)[C@@H](NC(=O)c1ccc(Cl)cc1)C(C)C)C(=O)N[C@H](C=O)C[C@@H]1CCCNC1=O", "Activity": "Non-Toxic"}, {"smiles": "CC(C)C[C@H](NC(=O)[C@@H](NC(=O)c1ccc2cc[nH]c2c1)C(C)C)C(=O)N[C@H](C=O)C[C@@H]1CCCNC1=O", "Activity": "Non-Toxic"}, {"smiles": "CC(C)C[C@H](NC(=O)[C@@H](NC(=O)c1ccccn1)C(C)C)C(=O)N[C@H](C=O)C[C@@H]1CCCNC1=O", "Activity": "Non-Toxic"}, {"smiles": "CC(C)C[C@H](NC(=O)[C@@H](NC(=O)/C=C/c1ccccc1F)C(C)C)C(=O)N[C@H](C=O)C[C@@H]1CCCNC1=O", "Activity": "Non-Toxic"}, {"smiles": "CC(C)C[C@H](NC(=O)[C@@H](NC(=O)/C=C/c1cccc(F)c1)C(C)C)C(=O)N[C@H](C=O)C[C@@H]1CCCNC1=O", "Activity": "Non-Toxic"}, {"smiles": "CC(C)C[C@H](NC(=O)[C@@H](NC(=O)c1ccoc1)C(C)C)C(=O)N[C@H](C=O)C[C@@H]1CCCNC1=O", "Activity": "Non-Toxic"}, {"smiles": "CC(C)C[C@H](NC(=O)[C@@H](NC(=O)/C=C/c1ccc(F)cc1)C(C)C)C(=O)N[C@H](C=O)C[C@@H]1CCCNC1=O", "Activity": "Non-Toxic"}, {"smiles": "C[C@H](NC(=O)/C=C/c1ccccc1)C(=O)N[C@H](C=O)C[C@@H]1CCCNC1=O", "Activity": "Non-Toxic"}, {"smiles": "CC(C)C[C@H](NC(=O)[C@@H](NC(=O)c1ccc([N+](=O)[O-])cc1)C(C)C)C(=O)N[C@H](C=O)C[C@@H]1CCCNC1=O", "Activity": "Non-Toxic"}, {"smiles": "CC(C)C[C@H](NC(=O)[C@@H](NC(=O)c1ccncc1)C(C)C)C(=O)N[C@H](C=O)C[C@@H]1CCCNC1=O", "Activity": "Non-Toxic"}, {"smiles": "CCCC[C@H](NC(=O)/C=C/c1ccccc1)C(=O)N[C@H](C=O)C[C@@H]1CCCNC1=O", "Activity": "Non-Toxic"}, {"smiles": "C=CC[C@H](NC(=O)/C=C/c1ccccc1)C(=O)N[C@H](C=O)C[C@@H]1CCCNC1=O", "Activity": "Non-Toxic"}, {"smiles": "COc1ccc(/C=C/C(=O)N[C@H](C(=O)N[C@@H](CC(C)C)C(=O)N[C@H](C=O)C[C@@H]2CCCNC2=O)C(C)C)cc1", "Activity": "Non-Toxic"}]}, {"target": "Replicase polyprotein 1ab (Severe acute respiratory syndrome coronavirus 2, UniProt P0DTD1)", "test": "Inhibition of SARS-CoV-2 3CL protease expressed in Escherichia coli BL21 (DE3) cells assessed as change in relative fluorescence unit using MCA-TSAVLQSGFRK(DNP)M as substrate preincubated for 30 mins followed by substrate addition and measured after 2 hrs by microplate reader based FRET assay", "conditions": "not given", "units": {"IC50": "nM"}, "values": [{"smiles": "CC(C)C[C@H](NC(=O)[C@@H](NC(=O)/C=C/c1ccccc1)C(C)C)C(=O)N[C@H](C=O)C[C@@H]1CCCNC1=O", "IC50": 281}, {"smiles": "CC(C)C[C@H](NC(=O)[C@@H](NC(=O)c1ccc[nH]1)C(C)C)C(=O)N[C@H](C=O)C[C@@H]1CCCNC1=O", "IC50": 172}, {"smiles": "O=C[C@H](C[C@@H]1CCCNC1=O)NC(=O)[C@@H](NC(=O)/C=C/c1ccccc1)c1ccccc1", "IC50": 2040}, {"smiles": "CC(C)C[C@H](NC(=O)[C@@H](NC(=O)c1ccc(F)cc1)C(C)C)C(=O)N[C@H](C=O)C[C@@H]1CCCNC1=O", "IC50": 197}, {"smiles": "CC(C)C[C@H](NC(=O)[C@@H](NC(=O)/C=C/c1ccc(N(C)C)cc1)C(C)C)C(=O)N[C@H](C=O)C[C@@H]1CCCNC1=O", "IC50": 592}, {"smiles": "CC(C)C[C@H](NC(=O)[C@@H](NC(=O)/C=C/c1ccc(C(C)C)cc1)C(C)C)C(=O)N[C@H](C=O)C[C@@H]1CCCNC1=O", "IC50": 230}, {"smiles": "CC[C@H](C)[C@H](NC(=O)/C=C/c1ccccc1)C(=O)N[C@@H](CC(C)C)C(=O)N[C@H](C=O)C[C@@H]1CCCNC1=O", "IC50": 357}, {"smiles": "CC(C)C[C@H](NC(=O)[C@@H](NC(=O)c1ccccc1)C(C)C)C(=O)N[C@H](C=O)C[C@@H]1CCCNC1=O", "IC50": 257}, {"smiles": "CC(C)C[C@H](NC(=O)[C@@H](NC(=O)c1ccc(-c2ccccc2)cc1)C(C)C)C(=O)N[C@H](C=O)C[C@@H]1CCCNC1=O", "IC50": 404}, {"smiles": "CC(C)C[C@H](NC(=O)[C@@H](NC(=O)c1ccc(Cl)cc1)C(C)C)C(=O)N[C@H](C=O)C[C@@H]1CCCNC1=O", "IC50": 148}, {"smiles": "CC(C)C[C@H](NC(=O)[C@@H](NC(=O)c1ccc2cc[nH]c2c1)C(C)C)C(=O)N[C@H](C=O)C[C@@H]1CCCNC1=O", "IC50": 221}, {"smiles": "CC(C)C[C@H](NC(=O)[C@@H](NC(=O)c1ccccn1)C(C)C)C(=O)N[C@H](C=O)C[C@@H]1CCCNC1=O", "IC50": 565}, {"smiles": "CC(C)C[C@H](NC(=O)[C@@H](NC(=O)/C=C/c1ccccc1F)C(C)C)C(=O)N[C@H](C=O)C[C@@H]1CCCNC1=O", "IC50": 173}, {"smiles": "CC(C)C[C@H](NC(=O)[C@@H](NC(=O)/C=C/c1cccc(F)c1)C(C)C)C(=O)N[C@H](C=O)C[C@@H]1CCCNC1=O", "IC50": 255}, {"smiles": "CC(C)C[C@H](NC(=O)[C@@H](NC(=O)c1ccoc1)C(C)C)C(=O)N[C@H](C=O)C[C@@H]1CCCNC1=O", "IC50": 173}, {"smiles": "CC(C)C[C@H](NC(=O)[C@@H](NC(=O)/C=C/c1ccc(F)cc1)C(C)C)C(=O)N[C@H](C=O)C[C@@H]1CCCNC1=O", "IC50": 307}, {"smiles": "C[C@H](NC(=O)/C=C/c1ccccc1)C(=O)N[C@H](C=O)C[C@@H]1CCCNC1=O", "IC50": 12300}, {"smiles": "CC(C)C[C@H](NC(=O)[C@@H](NC(=O)c1ccc([N+](=O)[O-])cc1)C(C)C)C(=O)N[C@H](C=O)C[C@@H]1CCCNC1=O", "IC50": 209}, {"smiles": "CC(C)C[C@H](NC(=O)[C@@H](NC(=O)c1ccncc1)C(C)C)C(=O)N[C@H](C=O)C[C@@H]1CCCNC1=O", "IC50": 153}, {"smiles": "CCCC[C@H](NC(=O)/C=C/c1ccccc1)C(=O)N[C@H](C=O)C[C@@H]1CCCNC1=O", "IC50": 277}, {"smiles": "C=CC[C@H](NC(=O)/C=C/c1ccccc1)C(=O)N[C@H](C=O)C[C@@H]1CCCNC1=O", "IC50": 1340}, {"smiles": "COc1ccc(/C=C/C(=O)N[C@H](C(=O)N[C@@H](CC(C)C)C(=O)N[C@H](C=O)C[C@@H]2CCCNC2=O)C(C)C)cc1", "IC50": 249}]}]}
